For assay [1], the target named is dopamine transporter (DAT) (Homo sapiens, UniProt Q01959). The experiment in a line: CNS receptor testing, affinity at dopamine transporter. It is filed as binding. Conditions: for affinity and selectivity for the dopamine transporter (DAT): result in words. As for the experimental part: The compounds were tested for affinity at various central nervous system receptors.

The test system of assay [2] is prostate cancer PC3 cells. Briefly: NCI 60 cell cancer screen, multiple dose study (dose-response) in PC3 cells. It is filed as cell-based. Conditions: FIG. 2. As for the experimental part:
FIG. 2 provides data from a multiple dose study (dose-response) performed in prostate cancer PC3 cells.
(§1) A multiple dose study (dose-response) was then performed using Compound 8 across multiple cancer cell lines. […] A multiple dose study (dose-response) was then performed in PC3 cells using Compound 9. […] (See FIG. 2) The data was generated according to the National Cancer Institute (NCI) 60 cell cancer screen.

A further assay concerns cancer cell lines. Briefly: National Cancer Institute (NCI) 60 cell cancer screen, growth inhibition. It is filed as cell-based. Conditions: multiple dose study (dose-response); leukemia, non-small cell, colon, CNS, melanoma, ovarian, renal, prostate, breast cancer cell lines (FIGS. 3-11). As for the experimental part:
as §1

This is an account of results in patent US12466801B2, “Cannabichromene derivatives and use thereof” (Remedy Processors LLC, priority 2023, dated 2025).

Sequence of dopamine transporter (DAT) (Q01959 whole entry, species assumed): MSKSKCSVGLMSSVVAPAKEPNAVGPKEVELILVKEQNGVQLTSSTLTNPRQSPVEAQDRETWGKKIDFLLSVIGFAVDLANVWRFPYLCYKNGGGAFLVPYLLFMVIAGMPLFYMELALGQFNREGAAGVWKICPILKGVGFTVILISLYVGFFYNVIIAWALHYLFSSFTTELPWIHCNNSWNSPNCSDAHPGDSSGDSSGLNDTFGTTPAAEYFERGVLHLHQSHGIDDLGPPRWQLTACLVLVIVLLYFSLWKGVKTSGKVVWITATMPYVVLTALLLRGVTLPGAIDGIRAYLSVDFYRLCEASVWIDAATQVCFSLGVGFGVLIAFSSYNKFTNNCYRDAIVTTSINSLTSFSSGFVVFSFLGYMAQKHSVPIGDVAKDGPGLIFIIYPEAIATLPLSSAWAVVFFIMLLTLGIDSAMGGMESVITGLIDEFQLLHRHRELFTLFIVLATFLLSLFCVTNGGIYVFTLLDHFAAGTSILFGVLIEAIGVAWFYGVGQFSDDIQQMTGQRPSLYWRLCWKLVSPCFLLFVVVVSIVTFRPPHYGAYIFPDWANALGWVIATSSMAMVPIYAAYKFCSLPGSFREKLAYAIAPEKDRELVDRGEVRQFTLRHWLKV

The term Ki denotes the equilibrium dissociation constant of an inhibitor or competing ligand from its target. Higher therefore signals lower affinity. Turning to `CCCCCc1cc(NC(=O)CCCC)c2c(c1)OC(C)(CCC=C(C)C)C=C2` (stereo not drawn) [Compound 12], in assay [1], affinity was put at a Ki of 0.107 µM; the “affinity and selectivity for the dopamine transporter (DAT)” value was “good affinity and selectivity”.
For `CCCCCc1cc(NC(=O)C(F)(F)Br)c2c(c1)OC(C)(CCC=C(C)C)C=C2` (stereo not drawn) [Compound 10], in assay [1], the affinity corresponds to a Ki of 0.085 µM; the “affinity and selectivity for the dopamine transporter (DAT)” value is “good affinity and selectivity”.
Regarding `CCCCCc1cc(NC(=O)CC(F)(F)F)c2c(c1)OC(C)(CCC=C(C)C)C=C2` (stereo not drawn) [Compound 9], the “growth inhibition of PC3 cells” value in assay [2] is “inhibits the growth”.
With `CCCCCc1cc(NC(=O)C(Cl)Cl)c2c(c1)OC(C)(CCC=C(C)C)C=C2` (stereo not drawn) [Compound 8], the “growth inhibition across multiple cancer cell lines” value in the assay with cancer cell lines is listed as “provided growth inhibition”.
